For data set [1] the following is noted: cited from earlier work; for Equivalent amount: dose equivalent for glucocorticoid therapy; for Hydrocortisone equivalent (1 mg of the glucocorticoid corresponds to the listed amount in mg of hydrocortisone): per 1 mg of the glucocorticoid.
The nature of data set [2]: In vivo plasma cortisol profile in healthy volunteers with suppressed endogenous cortisol, oral mucosal administration. Further details: species or system human. Here is the method: The in vivo experiments reported herein were carried out on healthy volunteers. At 6 pm and 11 pm the day before administration of the test composition, the endogenous cortisol secretion was suppressed by oral administration of 2 mg of betamethasone. The test composition was administered to healthy volunteers. The volunteers were in fasted state and were not allowed to take any food until noon. In the case a tablet is administered, it is ingested together with 200 ml of water. The test composition is administered between 8 am and 10 am on the day following the suppression of endogenous glucocorticoid secretion.
In vivo plasma profiles in humans, N=1 per composition
Dexamethasone suppression test, fasting state, otherwise as described in the paragraph denoted “Method”.
Two films were prepared essentially similar to Example 13—composition A. Film A contains 10 mg of hydrocortisone and film B contains 11.2 mg of hydrocortisone acetate.
The hydrocortisone compositions were tested in two human subjects after labial administration. The subjects had their endogenous glucocorticoid secretion suppressed by synthetic glucocorticoids. The plasma concentration of cortisol was monitored during 360 min after the labial administration, and the serum concentration time profiles from these two subjects are shown in FIGS. 6 and 7.
The compositions were tested after oral administration to two human subjects (see FIG. 8).

SMILES strings stand for the structures.

Results on six compounds are retold here after patent US9925139B2, “Pharmaceutical compositions for acute glucocorticoid therapy” (ACUCORT AB, priority 2004, dated 2018).

With `C[C@]12CCC(=O)C=C1CC[C@@H]1[C@@H]2[C@@H](O)C[C@@]2(C)[C@H]1CC[C@]2(O)C(=O)CO` [Hydrocortisone], in data set [1], the “Equivalent amount” value is 20 mg and the “Hydrocortisone equivalent (1 mg of the glucocorticoid corresponds to the listed amount in mg of hydrocortisone)” value (shortened to “Hydrocortisone equivalent”) is 1 mg. Moreover, the “Time at which first measured plasma concentration was attained” value in data set [2] (Example 13 films, 10 mg hydrocortisone, labial administration, two human subjects) lay in the range of 10 to 15 min. The “Rate and extent of mucosal uptake” value in data set [2] (Example 13 films, 10 mg hydrocortisone, labial administration, two human subjects, FIGS. 6 and 7) is “high”.

Regarding `C[C@]12C=CC(=O)C=C1CC[C@@H]1[C@@H]2[C@@H](O)C[C@@]2(C)[C@H]1CC[C@]2(O)C(=O)CO` [Prednisolone], in data set [1], the “Equivalent amount” value is 5 mg and the “Hydrocortisone equivalent” value is on record as 4 mg.

For `C[C@@H]1C[C@H]2[C@@H]3C[C@H](F)C4=CC(=O)C=C[C@]4(C)[C@H]3[C@@H](O)C[C@]2(C)[C@@]1(O)C(=O)CO` [Paramethasone], in data set [1], the “Equivalent amount” value is recorded as 2 mg and the “Hydrocortisone equivalent” value is 10 mg.

For the compound `C[C@]12C=CC(=O)C=C1CC[C@H]1[C@@H]3C[C@@H](O)[C@](O)(C(=O)CO)[C@@]3(C)C[C@H](O)[C@@]12F` [Triamcinolone], in data set [1], the “Equivalent amount” value is listed as 4 mg and the “Hydrocortisone equivalent” value is 5 mg.

Turning to `CC(=O)OCC(=O)[C@@]1(O)CC[C@H]2[C@@H]3CCC4=CC(=O)CC[C@]4(C)[C@H]3[C@@H](O)C[C@@]21C` [hydrocortisone acetate], the “Suitability for an immediate release composition (in vivo plasma profiles)” value in data set [2] (Example 11 thin-layer films, humans, N=1 per composition, fasting state, FIGS. 1-3) was “does not seem to be suitable for an immediate release composition”.

As for `CC(=O)OCC(=O)[C@@]1(O)CC[C@H]2[C@@H]3CCC4=CC(=O)CC[C@]4(C)[C@H]3C(=O)C[C@@]21C` [Cortisone acetate], in data set [1], the “Equivalent amount” value is 25 mg and the “Hydrocortisone equivalent” value was 0.8 mg.
